Measurements reported in ChEMBL document CHEMBL1649565, “Besifloxacin, a novel fluoroquinolone, has broad-spectrum in vitro activity against aerobic and anaerobic bacteria” (Antimicrob Agents Chemother, 2009).
Converted amounts (≈) assume the structure as drawn. The source made the active and inactive calls. The rule behind the calls is not given here.

Columns and labels:
Klebsiella pneumoniae [1] = test: Antibacterial activity against Klebsiella pneumoniae assessed as percent susceptible isolates by CLSI M7-A7 method; assay type: functional
Staphylococcus warneri [2] = test: Antibacterial activity against Staphylococcus warneri assessed as percent susceptible isolates by CLSI M100-S18 method; assay type: functional
[3] = system: Staphylococcus saprophyticus; test: Antibacterial activity against Staphylococcus saprophyticus by CLSI M100-S18 method; assay type: functional
[4] = system: Stenotrophomonas maltophilia; test: Antibacterial activity against levofloxacin-susceptible Stenotrophomonas maltophilia by CLSI M7-A7 method; assay type: functional
Streptococcus agalactiae = test: Antibacterial activity against Streptococcus agalactiae by CLSI M100-S18 method; assay type: functional
Staphylococcus aureus [5] = test: Antibacterial activity against ciprofloxacin-susceptible and methicillin-resistant Staphylococcus aureus assessed as percent susceptible isolates by CLSI M100-S18 method; assay type: functional
Moraxella catarrhalis = test: Antibacterial activity against Moraxella catarrhalis by CLSI M7-A7 method; assay type: functional
[6] = system: Staphylococcus epidermidis
[7] = system: Staphylococcus epidermidis; test: Antibacterial activity against non-ciprofloxacin-susceptible and methicillin-susceptible Staphylococcus epidermidis by CLSI M100-S18 method; assay type: functional
Morganella morganii = test: Antibacterial activity against Morganella morganii by CLSI M7-A7 method; assay type: functional
Haemophilus influenzae [8] = test: Antibacterial activity against ciprofloxacin-susceptible Haemophilus influenzae by CLSI M7-A7 method; assay type: functional
Streptococcus sanguinis = test: Antibacterial activity against Streptococcus sanguinis by CLSI M100-S18 method; assay type: functional
Pseudomonas aeruginosa [9] = test: Antibacterial activity against ciprofloxacin-susceptible Pseudomonas aeruginosa by CLSI M7-A7 method; assay type: functional
[10] = system: Streptococcus intermedius; test: Antibacterial activity against Streptococcus intermedius by CLSI M100-S18 method; assay type: functional
Acinetobacter baumannii = test: Antibacterial activity against Acinetobacter baumannii by CLSI M7-A7 method; assay type: functional
Staphylococcus warneri [11] = test: Antibacterial activity against Staphylococcus warneri by CLSI M100-S18 method; assay type: functional
[12] = system: Staphylococcus haemolyticus; test: Antibacterial activity against Staphylococcus haemolyticus by CLSI M100-S18 method; assay type: functional
Klebsiella aerogenes [13] = test: Antibacterial activity against Enterobacter aerogenes by CLSI M7-A7 method; assay type: functional
Streptococcus salivarius = test: Antibacterial activity against Streptococcus salivarius by CLSI M100-S18 method; assay type: functional
[14] = system: Staphylococcus epidermidis; test: Antibacterial activity against ciprofloxacin-susceptible and methicillin-resistant Staphylococcus epidermidis assessed as percent susceptible isolates by CLSI M100-S18 method; assay type: functional
Proteus vulgaris = test: Antibacterial activity against Proteus vulgaris assessed as percent susceptible isolates by CLSI M7-A7 method; assay type: functional
Streptococcus pneumoniae [15] = test: Antibacterial activity against non-levofloxacin susceptible Streptococcus pneumoniae by CLSI M100-S18 method; assay type: functional
Enterococcus faecium = test: Antibacterial activity against vancomycin- resistant Enterococcus faecium by CLSI M100-S18 method; assay type: functional
Proteus mirabilis [16] = test: Antibacterial activity against Proteus mirabilis assessed as percent susceptible isolates by CLSI M7-A7 method; assay type: functional
Klebsiella aerogenes [17] = test: Antibacterial activity against Enterobacter aerogenes assessed as percent susceptible isolates by CLSI M7-A7 method; assay type: functional
[18] = system: Staphylococcus haemolyticus; test: Antibacterial activity against Staphylococcus haemolyticus assessed as percent susceptible isolates by CLSI M100-S18 method; assay type: functional
[19] = system: Acinetobacter calcoaceticus; test: Antibacterial activity against Acinetobacter calcoaceticus by CLSI M7-A7 method; assay type: functional
Citrobacter freundii = test: Antibacterial activity against Citrobacter freundii assessed as percent susceptible isolates by CLSI M7-A7 method; assay type: functional
Streptococcus pneumoniae [20] = test: Antibacterial activity against non-levofloxacin susceptible Streptococcus pneumoniae assessed as percent susceptible isolates by CLSI M100-S18 method; assay type: functional
Staphylococcus aureus [21] = test: Antibacterial activity against ciprofloxacin-susceptible and methicillin-resistant Staphylococcus aureus by CLSI M100-S18 method; assay type: functional
[22] = system: Staphylococcus epidermidis; test: Antibacterial activity against ciprofloxacin-susceptible and methicillin-resistant Staphylococcus epidermidis by CLSI M100-S18 method; assay type: functional
Haemophilus influenzae [23] = test: Antibacterial activity against ciprofloxacin-susceptible Haemophilus influenzae assessed as percent susceptible isolates by CLSI M7-A7 method; assay type: functional
Streptococcus oralis = test: Antibacterial activity against Streptococcus oralis by CLSI M100-S18 method; assay type: functional
Pseudomonas aeruginosa [24] = test: Antibacterial activity against non-ciprofloxacin-susceptible Pseudomonas aeruginosa by CLSI M7-A7 method; assay type: functional
[25] = system: Stenotrophomonas maltophilia; test: Antibacterial activity against non-levofloxacin susceptible Stenotrophomonas maltophilia by CLSI M7-A7 method; assay type: functional
Serratia marcescens = test: Antibacterial activity against levofloxacin susceptible Serratia marcescens assessed as percent susceptible isolates by CLSI M7-A7 method; assay type: functional
Streptococcus anginosus = test: Antibacterial activity against Streptococcus anginosus by CLSI M100-S18 method; assay type: functional
Enterococcus faecalis = test: Antibacterial activity against vancomycin- resistant Enterococcus faecalis by CLSI M100-S18 method; assay type: functional
Klebsiella pneumoniae [26] = test: Antibacterial activity against Klebsiella pneumoniae by CLSI M7-A7 method; assay type: functional
[27] = system: Staphylococcus lugdunensis; test: Antibacterial activity against Staphylococcus lugdunensis by CLSI M100-S18 method; assay type: functional
Staphylococcus hominis = test: Antibacterial activity against Staphylococcus hominis assessed as percent susceptible isolates by CLSI M100-S18 method; assay type: functional
Streptococcus pyogenes = test: Antibacterial activity against Streptococcus pyogenes by CLSI M100-S18 method; assay type: functional
Streptococcus equinus = test: Antibacterial activity against Streptococcus bovis by CLSI M100-S18 method; assay type: functional
Streptococcus pneumoniae [28] = test: Antibacterial activity against levofloxacin susceptible Streptococcus pneumoniae assessed as percent susceptible isolates by CLSI M100-S18 method; assay type: functional
Proteus mirabilis [29] = test: Antibacterial activity against Proteus mirabilis by CLSI M7-A7 method; assay type: functional
Enterobacter cloacae = test: Antibacterial activity against Enterobacter cloacae by CLSI M7-A7 method; assay type: functional
Klebsiella oxytoca = test: Antibacterial activity against Klebsiella oxytoca by CLSI M7-A7 method; assay type: functional

## N[C@@H]1CCCCN(c2c(F)cc3c(=O)c(C(=O)O)cn(C4CC4)c3c2Cl)C1 [BESIFLOXACIN]
Klebsiella pneumoniae [1]
  Activity: inactive
Staphylococcus warneri [2]
  Activity: inactive
[3]
  MIC50: 0.06 µg/mL (≈ 0.152 µM)
  MIC90: 0.12 µg/mL (≈ 0.305 µM)
[4]
  MIC: 1 µg/mL (≈ 2.54 µM)
Streptococcus agalactiae
  MIC50: 0.06 µg/mL (≈ 0.152 µM)
  MIC90: 0.06 µg/mL (≈ 0.152 µM)
Staphylococcus aureus [5]
  Activity: inactive
Moraxella catarrhalis
  MIC50: 0.03 µg/mL (≈ 0.0762 µM)
  MIC90: 0.03 µg/mL (≈ 0.0762 µM)
[6]
  MIC90: inactive
[7]
  MIC: 0.25 µg/mL (≈ 0.635 µM)
  MIC50: 0.25 µg/mL (≈ 0.635 µM)
Morganella morganii
  MIC50: 0.12 µg/mL (≈ 0.305 µM)
  MIC90: 4 µg/mL (≈ 10.2 µM)
Haemophilus influenzae [8]
  MIC50: 0.015 µg/mL (≈ 0.0381 µM)
  MIC90: 0.03 µg/mL (≈ 0.0762 µM)
Streptococcus sanguinis
  MIC50: 0.06 µg/mL (≈ 0.152 µM)
  MIC90: 0.12 µg/mL (≈ 0.305 µM)
Pseudomonas aeruginosa [9]
  MIC50: 1 µg/mL (≈ 2.54 µM)
  MIC90: 4 µg/mL (≈ 10.2 µM)
[10]
  MIC50: 0.06 µg/mL (≈ 0.152 µM)
  MIC90: 0.12 µg/mL (≈ 0.305 µM)
Acinetobacter baumannii
  MIC50: 16 µg/mL (≈ 40.6 µM)
  MIC90: 32 µg/mL (≈ 81.3 µM)
Staphylococcus warneri [11]
  MIC50: 0.06 µg/mL (≈ 0.152 µM)
  MIC90: 1 µg/mL (≈ 2.54 µM)
[12]
  MIC50: 0.5 µg/mL (≈ 1.27 µM)
  MIC90: 1 µg/mL (≈ 2.54 µM)
Klebsiella aerogenes [13]
  MIC50: 0.25 µg/mL (≈ 0.635 µM)
  MIC90: 8 µg/mL (≈ 20.3 µM)
Streptococcus salivarius
  MIC50: 0.06 µg/mL (≈ 0.152 µM)
  MIC90: 0.12 µg/mL (≈ 0.305 µM)
[14]
  Activity: inactive
Proteus vulgaris
  Activity: inactive
Streptococcus pneumoniae [15]
  MIC50: 0.5 µg/mL (≈ 1.27 µM)
  MIC90: 0.5 µg/mL (≈ 1.27 µM)
Enterococcus faecium
  MIC50: 2 µg/mL (≈ 5.08 µM)
  MIC90: 8 µg/mL (≈ 20.3 µM)
Proteus mirabilis [16]
  Activity: inactive
Klebsiella aerogenes [17]
  Activity: inactive
[18]
  Activity: inactive
[19]
  MIC50: 0.5 µg/mL (≈ 1.27 µM)
  MIC90: 16 µg/mL (≈ 40.6 µM)
Citrobacter freundii
  Activity: inactive
Streptococcus pneumoniae [20]
  Activity: inactive
Staphylococcus aureus [21]
  MIC: 0.015 µg/mL (≈ 0.0381 µM)
  MIC50: 0.015 µg/mL (≈ 0.0381 µM)
  MIC90: 0.12 µg/mL (≈ 0.305 µM)
[22]
  MIC50: 0.03 µg/mL (≈ 0.0762 µM)
Haemophilus influenzae [23]
  Activity: inactive
Streptococcus oralis
  MIC50: 0.06 µg/mL (≈ 0.152 µM)
  MIC90: 0.12 µg/mL (≈ 0.305 µM)
Pseudomonas aeruginosa [24]
  MIC50: 16 µg/mL (≈ 40.6 µM)
  MIC90: 64 µg/mL (≈ 163 µM)
[25]
  MIC: 0.25 µg/mL (≈ 0.635 µM)
Serratia marcescens
  Activity: inactive
Streptococcus anginosus
  MIC50: 0.06 µg/mL (≈ 0.152 µM)
  MIC90: 0.12 µg/mL (≈ 0.305 µM)
Enterococcus faecalis
  MIC50: 0.12 µg/mL (≈ 0.305 µM)
  MIC90: 2 µg/mL (≈ 5.08 µM)
Klebsiella pneumoniae [26]
  MIC50: 0.25 µg/mL (≈ 0.635 µM)
  MIC90: 4 µg/mL (≈ 10.2 µM)
[27]
  MIC50: 0.06 µg/mL (≈ 0.152 µM)
  MIC90: 0.5 µg/mL (≈ 1.27 µM)
Staphylococcus hominis
  Activity: inactive
Streptococcus pyogenes
  MIC: 0.03 µg/mL (≈ 0.0762 µM)
  MIC50: 0.03 µg/mL (≈ 0.0762 µM)
  MIC90: 0.06 µg/mL (≈ 0.152 µM)
Streptococcus equinus
  MIC50: 0.06 µg/mL (≈ 0.152 µM)
  MIC90: 0.12 µg/mL (≈ 0.305 µM)
Streptococcus pneumoniae [28]
  Activity: inactive
Proteus mirabilis [29]
  MIC50: 0.25 µg/mL (≈ 0.635 µM)
  MIC90: 16 µg/mL (≈ 40.6 µM)
Enterobacter cloacae
  MIC50: 0.12 µg/mL (≈ 0.305 µM)
  MIC90: 2 µg/mL (≈ 5.08 µM)
Klebsiella oxytoca
  MIC50: 0.12 µg/mL (≈ 0.305 µM)
  MIC90: 1 µg/mL (≈ 2.54 µM)
